Measurements as given in patent US11021515B2, “Therapeutically active compounds and their methods of use” (Agios Pharmaceuticals, Inc., priority 2013, dated 2021).

Experiments:
U87MG cells = assay: Cellular assay, inhibition of 2-HG production in U87MG cells; format: cell-based; details: Homo sapiens, U-87 MG, 48 h
Experimental: Cells (HT1080 or U87MG) are grown in T125 flasks in DMEM containing 10% FBS, 1× penicillin/streptomycin and 500 ug/mL G418 (present in U87MG cells only). They are harvested by trypsin and seeded into 96 well white bottom plates at a density of 5000 cell/well in 100 ul/well in DMEM with 10% FBS. […] Cells are incubated overnight at 37° C. in 5% CO2. The next day test compounds are made up at 2× the final concentration and 100 ul are added to each cell well. The final concentration of DMSO is 0.2% and the DMSO control wells are plated in row G. The plates are then placed in the incubator for 48 hours. […] The cell plate is placed back in the incubator for another 24 hours. At 72 hours post compound addition, 10 mL/plate of Promega Cell Titer Glo reagent is thawed and mixed. The cell plate is removed from the incubator and allowed to equilibrate to room temperature. Then 100 ul of Promega Cell Titer Glo reagent is added to each well of media. The cell plate is then placed on an orbital shaker for 10 minutes and then allowed to sit at room temperature for 20 minutes. The plate is then read for luminescence with an integration time of 500 ms.

IDH1 R132H = IDH1 R132H (Homo sapiens (Human), UniProt O75874, R132H); assay: In vitro NADPH depletion assay for IDH1m inhibitors (R132H); format: biochemical; details: IDH1 R132H enzyme, read-out: IDH R132H IC50
IDH1 R132H, sequence (O75874 whole entry R132H): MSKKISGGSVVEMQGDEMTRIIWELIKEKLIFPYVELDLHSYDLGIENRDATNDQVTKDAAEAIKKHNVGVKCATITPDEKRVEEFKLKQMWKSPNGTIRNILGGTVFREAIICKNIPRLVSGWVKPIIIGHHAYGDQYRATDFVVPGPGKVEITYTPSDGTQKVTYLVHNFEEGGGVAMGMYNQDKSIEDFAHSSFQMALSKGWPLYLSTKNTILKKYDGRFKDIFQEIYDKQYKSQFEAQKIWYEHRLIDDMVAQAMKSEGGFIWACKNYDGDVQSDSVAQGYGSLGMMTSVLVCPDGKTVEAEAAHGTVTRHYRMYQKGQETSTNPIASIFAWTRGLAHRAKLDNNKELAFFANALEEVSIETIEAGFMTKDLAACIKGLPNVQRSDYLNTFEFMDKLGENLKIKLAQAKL
Experimental: (§1) A test compound is prepared as 10 mM stock in DMSO and diluted to 50× final concentration in DMSO, for a 50 μl reaction mixture. IDH enzyme activity converting alpha-ketoglutarate to 2-hydroxyglutaric acid is measured using a NADPH depletion assay. In the assay the remaining cofactor is measured at the end of the reaction with the addition of a catalytic excess of diaphorase and resazurin, to generate a fluorescent signal in proportion to the amount of NADPH remaining. […] The reaction is started with the addition of […] Substrate Mix ([…] NADPH, 5 mM alpha-ketoglutarate, in Assay Buffer) and the mixture is incubated for 90 minutes at room temperature.

IDH1 R132C = IDH1 R132C (Homo sapiens (Human), UniProt O75874, R132C); assay: In vitro NADPH depletion assay for IDH1m inhibitors (R132C); format: biochemical; details: IDH1 R132C enzyme, read-out: IDH R132C IC50
IDH1 R132C, sequence (O75874 whole entry R132C): as the sequence (O75874 whole entry R132H) above, with H132C counted along it
Experimental: as §1
The concentration of NADPH and alpha-ketoglutarate in the Substrate Buffer is 20 μM and 1 mM, respectively.

Compound | IC50 (U87MG cells) [nM] | IC50 (IDH1 R132H) [nM] | IC50 (IDH1 R132C) [nM]
CS(=O)(=O)c1cc(F)cc(N(C(=O)[C@@H]2CCC(=O)N2c2cc(C#N)ccn2)C(C(=O)NC2CCC(F)(F)CC2)c2ccccc2Cl)c1 (mixture of isomers) [Compound 105, (2S)—N-(1-(2-Chlorophenyl)-2-((4,4-difluorocyclohexyl)amino)-2-oxoethyl)-1-(4-cyanopyridin-2-yl)-N-(3-fluoro-5-(methylsulfonyl)phenyl)-5-oxopyrrolidine-2-carboxamide] | < 100 | – | –
CS(=O)(=O)c1cc(F)cc(N(C(=O)[C@@H]2CCC(=O)N2c2cc(C#N)ccn2)C(C(=O)NC2CC(F)(F)C2)c2ccccc2Cl)c1 (mixture of isomers) [Compound 110, (2S)—N-(1-(2-Chlorophenyl)-2-((3,3-difluorocyclobutyl)amino)-2-oxoethyl)-1-(4-cyanopyridin-2-yl)-N-(3-fluoro-5-(methylsulfonyl)phenyl)-5-oxopyrrolidine-2-carboxamide] | < 100 | < 100 | < 100
O=C(NC1CC(F)(F)C1)[C@H](c1ccccc1Cl)N(C(=O)[C@@H]1CCC(=O)N1c1ccccn1)c1cccc(F)c1 [Compound 5] | 100 to 500 | – | –
O=C(NC1CC(F)(F)C1)[C@H](c1ccccc1Cl)N(C(=O)[C@@H]1CCC(=O)N1c1cccc(F)n1)c1cccc(F)c1 [Compound 11] | – | – | 100 to 500
O=C(NC1CC(F)(F)C1)[C@H](c1ccccc1Cl)N(C(=O)[C@@H]1CCC(=O)N1c1nccc2ccccc12)c1cccc(F)c1 [Compound 16] | – | 100 to 500 | 100 to 500
O=C(NC1CC(F)(F)C1)[C@H](c1ccccc1Cl)N(C(=O)[C@@H]1CCC(=O)N1c1cnccn1)c1cccc(F)c1 [Compound 18] | < 100 | – | –
O=C(NC1CC(F)(F)C1)[C@H](c1ccccc1Cl)N(C(=O)[C@@H]1CCC(=O)N1c1ccccc1)c1cccc(F)c1 [Compound 23] | 100 to 500 | – | –
N#Cc1ccnc(N2C(=O)OC[C@H]2C(=O)N(c2cccc(F)c2)[C@H](C(=O)NC2CCC(F)(F)CC2)c2ccccc2Cl)c1 [Compound 78, (S)—N—((S)-1-(2-Chlorophenyl)-2-((4,4-difluorocyclohexyl)amino)-2-oxoethyl)-3-(4-cyano-pyridin-2-yl)-N-(3-fluorophenyl)-2-oxooxazolidine-4-carboxamide] | < 100 | – | –
CCOC(=O)CN1C[C@@H](C(=O)N(c2cccc(F)c2)[C@H](C(=O)NC2CC(F)(F)C2)c2ccccc2Cl)N(c2cc(C#N)ccn2)C1=O [Compound 94, Ethyl 2-((4S)-4-((1-(2-chlorophenyl)-2-((3,3-difluorocyclobutyl)amino)-2-oxoethyl)(3-fluorophenyl)carbamoyl)-3-(4-cyanopyridin-2-yl)-2-oxoimidazolidin-1-yl)acetate] | < 100 | – | –
CS(=O)(=O)c1cc(F)cc(N(C(=O)[C@@H]2CCC(=O)N2c2nccc(C#N)n2)[C@H](C(=O)NC2CC(F)(F)C2)c2ccccc2Cl)c1 [Compound 109, (S)—N—((S)-1-(2-Chlorophenyl)-2-((3,3-difluorocyclobutyl)amino)-2-oxoethyl)-1-(4-cyanopyrimidin-2-yl)-N-(3-fluoro-5-(methylsulfonyl)phenyl)-5-oxopyrrolidine-2-carboxamide] | 100 to 500 | – | –
N#Cc1ccnc(N2C(=O)CC[C@H]2C(=O)N(c2cccc(C3(O)CC3)c2)[C@H](C(=O)NC2CC(F)(F)C2)c2ccccc2Cl)c1 [Compound 140, (S)—N—((S)-1-(2-Xhlorophenyl)-2-(3,3-difluorocyclobutylamino)-2-oxoethyl)-1-(4-cyanopyridin-2-yl)-N-(3-(1-hydroxycyclopropyl)phenyl)-5-oxopyrrolidine-2-carboxamide] | < 100 | – | –
